ChEMBL document CHEMBL3098069, “Azide-alkyne cycloaddition affording enzymatically tunable bisubstrate based inhibitors of histone acetyltransferase PCAF” (Bioorg Med Chem Lett, 2014)
Activity calls are given as the source filed them. The rule behind the calls is not given here. Square brackets hold non-standard residues; d marks the D form. Peptide text beside a SMILES is read from it. Lys(N3) = [N-]=[N+]=NCCCC[C@H](N)C(=O)O; pS = N[C@@H](COP(=O)(O)O)C(=O)O

Assays:
[1] = molecular target: T1, Histone acetyltransferase KAT2B (Homo sapiens, UniProt Q92831); test: Inhibition of PCAF (unknown origin) using histone H3 derived peptide as substrate at 10^-6 to 10^-3 M after 20 mins by fluorescence assay
Target sequence in this assay (Q92831 whole entry, looked up): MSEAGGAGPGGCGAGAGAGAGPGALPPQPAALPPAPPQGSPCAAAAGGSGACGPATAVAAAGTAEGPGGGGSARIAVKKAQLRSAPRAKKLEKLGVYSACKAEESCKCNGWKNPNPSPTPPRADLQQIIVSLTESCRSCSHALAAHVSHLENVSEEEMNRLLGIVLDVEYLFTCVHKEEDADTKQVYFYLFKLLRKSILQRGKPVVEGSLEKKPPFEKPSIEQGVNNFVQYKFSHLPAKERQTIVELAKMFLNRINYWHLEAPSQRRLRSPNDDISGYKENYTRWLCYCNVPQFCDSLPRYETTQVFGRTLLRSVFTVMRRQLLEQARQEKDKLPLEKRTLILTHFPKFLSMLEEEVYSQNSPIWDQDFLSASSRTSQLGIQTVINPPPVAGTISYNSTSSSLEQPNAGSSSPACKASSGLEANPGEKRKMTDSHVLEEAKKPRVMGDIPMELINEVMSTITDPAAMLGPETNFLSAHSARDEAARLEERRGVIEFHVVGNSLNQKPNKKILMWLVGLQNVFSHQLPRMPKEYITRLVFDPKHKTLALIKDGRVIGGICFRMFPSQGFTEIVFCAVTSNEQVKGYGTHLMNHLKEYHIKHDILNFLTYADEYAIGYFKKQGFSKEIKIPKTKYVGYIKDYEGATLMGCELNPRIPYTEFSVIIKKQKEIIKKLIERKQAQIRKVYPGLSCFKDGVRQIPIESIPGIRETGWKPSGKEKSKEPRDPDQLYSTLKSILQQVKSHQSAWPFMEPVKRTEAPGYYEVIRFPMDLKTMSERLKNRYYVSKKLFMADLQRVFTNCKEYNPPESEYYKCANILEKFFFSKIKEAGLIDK

[2] = molecular target: T1, Histone acetyltransferase KAT2B; test: Competitive inhibition of PCAF (unknown origin) using histone H3 derived peptide as substrate after 20 mins by fluorescence assay
Target sequence in this assay (Q92831 whole entry): as the sequence (Q92831 whole entry, looked up) above

[3] = molecular target: Serine/threonine-protein kinase pim-1 (Homo sapiens, UniProt P11309); test: Drug degradation in NEB buffer assessed as PIM1 kinase (unknown origin)-mediated H3-pSer-CoA formation at 1 mg after 60 mins by RP-HPLC analysis; assay type: ADME; conditions: 1 h
[4] = molecular target: T1, Histone acetyltransferase KAT2B; test: Inhibition of PCAF (unknown origin) using histone H3 derived peptide as substrate after 20 mins by fluorescence assay
Target sequence in this assay (Q92831 whole entry): as the sequence (Q92831 whole entry, looked up) above

[5] = Drug degradation in NEB buffer at 1 mg after 10 to 120 mins by RP-HPLC analysis; assay type: physicochemical
[6] = Drug degradation in NEB buffer assessed as Protein phosphatase 1 (unknown origin)-mediated H3-Ser-CoA formation at 1 mg after 30 mins by RP-HPLC analysis; assay type: ADME, Homo sapiens; conditions: 0.5 h

Serine/threonine-protein kinase pim-1, sequence (P11309 whole entry): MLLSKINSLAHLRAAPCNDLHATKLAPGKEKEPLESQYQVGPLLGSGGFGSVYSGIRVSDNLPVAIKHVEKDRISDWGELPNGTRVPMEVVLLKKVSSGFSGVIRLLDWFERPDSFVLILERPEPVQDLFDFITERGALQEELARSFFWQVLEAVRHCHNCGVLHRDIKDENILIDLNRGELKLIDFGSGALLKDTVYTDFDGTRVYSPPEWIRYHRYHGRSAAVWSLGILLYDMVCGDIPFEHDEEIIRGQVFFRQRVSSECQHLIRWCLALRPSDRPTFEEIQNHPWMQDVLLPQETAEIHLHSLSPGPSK

| inhibition [1] | IC50 [2] [µM] | Drug degradation [3] | IC50 [4] [µM] | Stability [5] | Drug degradation [6] | SMILES |
| --- | --- | --- | --- | --- | --- | --- |
| inactive |  |  |  |  |  | CC(=O)N[C@@H](C)C(=O)N[C@@H](CCCNC(=N)N)C(=O)N[C@@H](CCCCN)C(=O)N[C@@H](COP(=O)(O)O)C(=O)N[C@H](C(=O)NCC(=O)NCC(=O)N[C@@H](CCCCN=[N+]=[N-])C(=O)N[C@@H](C)C(=O)N1CCC[C@H]1C(=O)N[C@@H](CCCNC(=N)N)C(=O)N[C@@H](CCCCN)C(N)=O)[C@@H](C)O (Ac-ARK[pS]TGG[Lys(N3)]APRK-NH2) |
|  | 117 | Active | 2.8 | Unstable |  | CC(=O)N[C@@H](C)C(=O)N[C@@H](CCCNC(=N)N)C(=O)N[C@@H](CCCCN)C(=O)N[C@@H](CO)C(=O)N[C@H](C(=O)NCC(=O)NCC(=O)N[C@@H](CCCCn1cc(CSCCNC(=O)CCNC(=O)[C@@H](O)C(C)(C)COP(=O)(O)OP(=O)(O)OC[C@H]2O[C@@H](n3cnc4c(N)ncnc43)[C@H](O)[C@@H]2OP(=O)(O)O)nn1)C(=O)N[C@@H](C)C(=O)N1CCC[C@H]1C(=O)N[C@@H](CCCNC(=N)N)C(=O)N[C@@H](CCCCN)C(N)=O)[C@@H](C)O |
| inactive |  |  |  |  |  | CC(=O)N[C@@H](C)C(=O)N[C@@H](CCCNC(=N)N)C(=O)N[C@@H](CCCCN)C(=O)N[C@@H](CO)C(=O)N[C@H](C(=O)NCC(=O)NCC(=O)N[C@@H](CCCCN=[N+]=[N-])C(=O)N[C@@H](C)C(=O)N1CCC[C@H]1C(=O)N[C@@H](CCCNC(=N)N)C(=O)N[C@@H](CCCCN)C(N)=O)[C@@H](C)O (Ac-ARKSTGG[Lys(N3)]APRK-NH2) |
| inactive |  |  |  |  |  | C#CCSCCNC(=O)CCNC(=O)[C@@H](O)C(C)(C)COP(=O)(O)OP(=O)(O)OC[C@H]1O[C@@H](n2cnc3c(N)ncnc32)[C@H](O)[C@@H]1OP(=O)(O)O |
|  | 33 |  | 1.7 | Unstable | Active | CC(=O)N[C@@H](C)C(=O)N[C@@H](CCCNC(=N)N)C(=O)N[C@@H](CCCCN)C(=O)N[C@@H](COP(=O)(O)O)C(=O)N[C@H](C(=O)NCC(=O)NCC(=O)N[C@@H](CCCCn1cc(CSCCNC(=O)CCNC(=O)[C@@H](O)C(C)(C)COP(=O)(O)OP(=O)(O)OC[C@H]2O[C@@H](n3cnc4c(N)ncnc43)[C@H](O)[C@@H]2OP(=O)(O)O)nn1)C(=O)N[C@@H](C)C(=O)N1CCC[C@H]1C(=O)N[C@@H](CCCNC(=N)N)C(=O)N[C@@H](CCCCN)C(N)=O)[C@@H](C)O |
